Data from patent publication US8153805B2, “Biaryl derivatives” (Hoffmann-La Roche Inc., priority 2007, dated 2012).

What follows are molecules tested against T1, human CCR2B (Homo sapiens, UniProt P41597) (assay: Calcium mobilization assay (FLIPR, MCP-1 stimulated CHOK1-CCR2B-A5 cells)). Conditions: antagonist activity vs 20 nM MCP-1, CHOK1-CCR2B-A5 cells.
T1 construct: host or cells: CHO-K1 (CHOK1-CCR2B-A5)
T1 sequence (P41597 1-360 isoform P41597-2): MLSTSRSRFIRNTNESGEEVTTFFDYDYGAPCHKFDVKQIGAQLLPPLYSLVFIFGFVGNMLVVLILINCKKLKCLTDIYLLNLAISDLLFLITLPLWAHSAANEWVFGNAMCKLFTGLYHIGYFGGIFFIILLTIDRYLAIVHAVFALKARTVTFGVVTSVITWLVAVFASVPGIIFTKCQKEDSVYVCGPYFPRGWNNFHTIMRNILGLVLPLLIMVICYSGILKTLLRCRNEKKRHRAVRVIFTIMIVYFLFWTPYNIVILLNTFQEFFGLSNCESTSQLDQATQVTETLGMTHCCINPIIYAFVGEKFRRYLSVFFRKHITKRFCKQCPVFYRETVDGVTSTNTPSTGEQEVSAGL
Type: cell-based
Method: Calcium Mobilization Assay
CHOK1-CCR2B-A5 cells (from Euroscreen) stably overexpressing the human chemokine receptor 2 isoform B were cultured in Nutrient Hams F12 medium supplemented with 5% FBS, 100 U/ml penicillin, 100 μg/ml streptomycin, 400 μg/ml G418 and 5 μg/ml puromycin.
For the assay cells were grown overnight in 384-well black clear flat bottom polystyrene plates (Costar) at 37° C. at 5% CO2. After washing with DMEM, 20 mM Hepes, 2.5 mM probenecid, 0.1% BSA (DMEM assay buffer) cells were loaded with 4 μM Fluo-4 in the same DMEM assay buffer for 2 hours at 30° C. Excess dye was removed and cells were washed with DMEM assay buffer. 384-well compound plates were prepared with DMEM assay buffer/0.5% DMSO with or without various concentrations of test compounds. Usually compounds were tested for agonist and antagonist activity.
Test compounds were added to the assay plate and agonist activity was monitored as fluorescence for 80 seconds with a FLIPR (488 nm excitation; 510-570 nm emission; Molecular Devices). After 20-30 min. of incubation at 30° C., 20 nM MCP-1 (R&D; Roche) was added and fluorescence was monitored again for 80 seconds. Increases in intracellular calcium are reported as maximum fluorescence after agonist exposure minus basal fluorescence before exposure. Antagonist activity is indicated as inhibitor concentration required for 50% inhibition of specific calcium increases.

Row | Structure (SMILES) | IC50 [nM]
1 | Cc1cc(-c2cccc(OC(F)(F)F)c2)cc(C)c1C(=O)N1CCC(N2CCCC2)CC1 [Example 1, (3,5-Dimethyl-3′-trifluoromethoxy-biphenyl-4-yl)-(4-pyrrolidin-1-yl-piperidin-1-yl)-methanone] | 60
2 | Cc1cc(-c2cccc(C(F)(F)F)c2)cc(C)c1C(=O)N1CCC(N2CCC(O)CC2)CC1 [Example 22, (3,5-Dimethyl-3′-trifluoromethyl-biphenyl-4-yl)-(4-hydroxy-[1,4′]bipiperidinyl-1′-yl)-methanone] | 55
3 | Cc1cc(-c2cccc(C(F)(F)F)c2)nc(C)c1C(=O)N1CCC(N2CCC[C@H]2CO)CC1 [Example 30, [2,4-Dimethyl-6-(3-trifluoromethyl-phenyl)-pyridin-3-yl]-[4-((S)-2-hydroxymethyl-pyrrolidin-1-yl)-piperidin-1-yl]-methanone] | 67
4 | Cc1cc(-c2cccc(C(F)(F)F)c2)cc(-c2cccnc2)c1C(=O)N1CCC(N2CCCC2)CC1 [Example 48, (5-Methyl-3-pyridin-3-yl-3′ trifluoromethyl-biphenyl-4-yl)-(4-pyrrolidin-1-yl-piperidin-1-yl)-methanone] | 16
5 | Cc1cc(-c2cncc(C(F)(F)F)c2)cc(C)c1C(=O)N1CCC(N2CCC(O)CC2)CC1 [Example 24, [2,6-Dimethyl-4-(5-trifluoromethyl-pyridin-3-yl)-phenyl]-(4-hydroxy-[1,4′]bipiperidinyl-1′-yl)-methanone] | 270
6 | Cc1nc(-c2cccc(C(F)(F)F)c2)nc(C)c1C(=O)N1CCC(N2CCCC2)CC1 [Example 13, [4,6-Dimethyl-2-(3-trifluoromethyl-phenyl)-pyrimidin-5-yl]-(4-pyrrolidin-1-yl-piperidin-1-yl)-methanone] | 190
7 | Cc1cc(-c2cccc(C(F)(F)F)c2)cc(C)c1C(=O)N1CCC(N2CCC[C@H]2CO)CC1 [Example 9, (3,5-Dimethyl-3′-trifluoromethyl-biphenyl-4-yl)-[4-((S)-2-hydroxymethyl-pyrrolidin-1-yl)-piperidin-1-yl]-methanone] | 9
8 | Cc1cc(-c2cncc(C(F)(F)F)c2)nc(C)c1C(=O)N1CCC(N2CCC[C@H]2CO)CC1 [Example 43, (4,6-Dimethyl-5′-trifluoromethyl-[2,3′]bipyridinyl-5-yl)-[4-((S)-2-hydroxymethyl-pyrrolidin-1-yl)-piperidin-1-yl]-methanone] | 480
9 | Cc1cc(-c2cccc(C(F)(F)F)c2)ccc1C(=O)N1CCC(N2CCCC2)CC1 [Example 7, (3-Methyl-3′-trifluoromethyl-biphenyl-4-yl)-(4-pyrrolidin-1-yl-piperidin-1-yl)-methanone] | 150
10 | Cc1cc(-c2cccc(OC(F)(F)F)c2)nc(C)c1C(=O)N1CCC(N2CCC[C@H]2CO)CC1 [Example 29, [2,4-Dimethyl-6-(3-trifluoromethoxy-phenyl)-pyridin-3-yl]-[4-((S)-2-hydroxymethyl-pyrrolidin-1-yl)-piperidin-1-yl]-methanone] | 150
11 | Cc1nc(-c2cccc(C(F)(F)F)c2)nc(C)c1C(=O)N1CCC(N2CCC[C@H]2CO)CC1 [Example 16, [4,6-Dimethyl-2-(3-trifluoromethyl-phenyl)-pyrimidin-5-yl]-[4-((S)-2-hydroxymethyl-pyrrolidin-1-yl)-piperidin-1-yl]-methanone] | 310
12 | Cc1nc(-c2cccc(C(F)(F)F)c2)nc(C2CC2)c1C(=O)N1CCC(N2CCC[C@H]2CO)CC1 [Example 19, [4-Cyclopropyl-6-methyl-2-(3-trifluoromethyl-phenyl)-pyrimidin-5-yl]-[4-((S)-2-hydroxymethyl-pyrrolidin-1-yl)-piperidin-1-yl]-methanone] | 990
13 | Cc1cc(-c2cccc(C(F)(F)F)c2)cc(C)c1C(=O)N1CCC(N2CCCC2)CC1 [Example 2, (3,5-Dimethyl-3′-trifluoromethyl-biphenyl-4-yl)-(4-pyrrolidin-1-yl-piperidin-1-yl)-methanone] | 21
14 | Cc1cc(-c2cccc(C(F)(F)F)c2)nc(C)c1C(=O)N1CCC(N2CCCC2)CC1 [Example 27, [2,4-Dimethyl-6-(3-trifluoromethyl-phenyl)-pyridin-3-yl]-(4-pyrrolidin-1-yl-piperidin-1-yl)-methanone] | 21
15 | Cc1cc(-c2cccc(C(F)(F)F)c2)cc(-c2cncnc2)c1C(=O)N1CCC(N2CCCC2)CC1 [Example 47, (5-Methyl-3-pyrimidin-5-yl-3′-trifluoromethyl-biphenyl-4-yl)-(4-pyrrolidin-1-yl-piperidin-1-yl)-methanone] | 12
16 | Cc1cc(-c2cccc(C(F)(F)F)c2)nc(OCCO)c1C(=O)N1CCC(N2CCCC2)CC1 [Example 53, [2-(2-Hydroxy-ethoxy)-4-methyl-6-(3-trifluoromethyl-phenyl)-pyridin-3-yl]-(4-pyrrolidin-1-yl-piperidin-1-yl)-methanone] | 11
17 | O=C(c1c(F)cc(-c2cccc(C(F)(F)F)c2)cc1F)N1CCC(N2CCCC2)CC1 [Example 39, (3,5-Difluoro-3′-trifluoromethyl-biphenyl-4-yl)-(4-pyrrolidin-1-yl-piperidin-1-yl)-methanone] | 89

More lines, in order of falling IC50, values ahead:

Row | IC50 [nM] | Structure (SMILES)
18 | 490 | Cc1nc(-c2cccc(C(F)(F)F)c2)nc(C2CC2)c1C(=O)N1CCC(N2CCCC2)CC1 [Example 18, [4-Cyclopropyl-6-methyl-2-(3-trifluoromethyl-phenyl)-pyrimidin-5-yl]-(4-pyrrolidin-1-yl-piperidin-1-yl)-methanone]
19 | 430 | Cc1cc(-c2cccc(OC(F)(F)F)c2)ccc1C(=O)N1CCC(N2CCCC2)CC1 [Example 6, (3-Methyl-3′-trifluoromethoxy-biphenyl-4-yl)-(4-pyrrolidin-1-yl-piperidin-1-yl)-methanone]
20 | 240 | Cc1cc(-c2cncc(C(F)(F)F)c2)nc(C)c1C(=O)N1CCC(N2CCCC2)CC1 [Example 42, (4,6-Dimethyl-5′-trifluoromethyl-[2,3′]bipyridinyl-5-yl)-(4-pyrrolidin-1-yl-piperidin-1-yl)-methanone]
21 | 220 | O=C(c1c(F)cc(-c2cccc(OC(F)(F)F)c2)cc1F)N1CCC(N2CCCC2)CC1 [Example 40, (3,5-Difluoro-3′-trifluoromethoxy-biphenyl-4-yl)-(4-pyrrolidin-1-yl-piperidin-1-yl)-methanone]
22 | 122 | O=C(c1ccc(-c2cccc(C(F)(F)F)c2)cc1Cl)N1CCC(N2CCCC2)CC1 [Example 46, (3-Chloro-3′-trifluoromethyl-biphenyl-4-yl)-(4-pyrrolidin-1-yl-piperidin-1-yl)-methanone]
23 | 82 | COc1nc(-c2cccc(C(F)(F)F)c2)cc(C)c1C(=O)N1CCC(N2CCCC2)CC1 [Example 50, [2-Methoxy-4-methyl-6-(3-trifluoromethyl-phenyl)-pyridin-3-yl]-(4-pyrrolidin-1-yl-piperidin-1-yl)-methanone]
24 | 79 | Cc1cc(-c2cccc(OC(F)(F)F)c2)nc(C)c1C(=O)N1CCC(N2CCCC2)CC1 [Example 28, [2,4-Dimethyl-6-(3-trifluoromethoxy-phenyl)-pyridin-3-yl]-(4-pyrrolidin-1-yl-piperidin-1-yl)-methanone]
25 | 76 | COc1cc(-c2cccc(C(F)(F)F)c2)cc(C)c1C(=O)N1CCC(N2CCCC2)CC1 [Example 44, (3-Methoxy-5-methyl-3′-trifluoromethyl-biphenyl-4-yl)-(4-pyrrolidin-1-yl-piperidin-1-yl)-methanone]
26 | 48 | Cc1cc(-c2cncc(C(F)(F)F)c2)cc(C)c1C(=O)N1CCC(N2CCC[C@H]2CO)CC1 [Example 14, [2,6-Dimethyl-4-(5-trifluoromethyl-pyridin-3-yl)-phenyl]-[4-((S)-2-hydroxymethyl-pyrrolidin-1-yl)-piperidin-1-yl]-methanone]
27 | 48 | Cc1cc(-c2cccc(C(F)(F)F)c2)cc(O)c1C(=O)N1CCC(N2CCCC2)CC1 [Example 45, (3-Hydroxy-5-methyl-3′-trifluoromethyl-biphenyl-4-yl)-(4-pyrrolidin-1-yl-piperidin-1-yl)-methanone]
28 | 39 | Cc1cc(-c2cccc(OC(F)(F)F)c2)cc(C)c1C(=O)N1CCC(N2CCC[C@H]2CO)CC1 [Example 10, (3,5-Dimethyl-3′-trifluoromethoxy-biphenyl-4-yl)-[4-((S)-2-hydroxymethyl-pyrrolidin-1-yl)-piperidin-1-yl]-methanone]
29 | 17 | Cc1cc(-c2cccc(C(F)(F)F)c2)nc(O)c1C(=O)N1CCC(N2CCCC2)CC1 [Example 51, [2-Hydroxy-4-methyl-6-(3-trifluoromethyl-phenyl)-pyridin-3-yl]-(4-pyrrolidin-1-yl-piperidin-1-yl)-methanone; 4-Methyl-3-(4-pyrrolidin-1-yl-piperidine-1-carbonyl)-6-(3-trifluoromethyl-phenyl)-1H-pyridin-2-one (tautomers)]
